From patent US11345669B2, “Urea derivatives and methods of use thereof” (NodThera Limited, priority 2017, dated 2022)
pIC50: −log10 of the molar value. Like-named read-outs stand apart in the source and are kept apart here.

Tested on: IL1-β release upon NLRP3 activation in peripheral blood mononuclear cells (PBMC)
Assay: PBMC IC50 Determination Assay
Type: cell-based
Conditions: Homo sapiens; for pIC50: PBMC from buffy coats, LPS 3 h, compound 30 min, then ATP (5 mM) or nigericin (10 μM) for 1 h, IL-1β in media by ELISA, read-out: PBMCs, IC50; for IC50: PBMC, read-out: PBMCs, IC50, μM
Procedure: PBMC IC50 Determination Assay
The compounds of the present disclosure were tested for their inhibitory activity against IL1-β release upon NLRP3 activation in peripheral blood mononuclear cells (PBMC).
Isolated cells were seeded into the wells of a 96-well plate and incubated for 3 h with lipopolysaccharide (LPS). Following medium exchange, the compounds of the present disclosure were added (a single compound per well) and the cells were incubated for 30 min. Next, the cells were stimulated either with ATP (5 mM) or nigericin (10 μM) for 1 h and the cell culture media from the wells were collected for further analysis.
The release of IL-1β into the media was determined by a quantitative detection of IL-1β in 5 the media using an IL-1β enzyme-linked immunosorbent assay (ELISA) Ready-SET-Go!, eBioscience cat. […] Subsequently, plates were blocked with blocking buffer for 1 h at room temperature (rt) and after washing with a buffer (PBS with 0.05% Tween-20) incubated with protein standard and culture media. […] Plates were washed and incubated with HRP-streptavidin for 30 min at rt and washed again. The signal was developed after addition of 3,39,S,59-tetramethylbenzidine-peroxidase (TMB) until color appeared and the reaction was stopped by 2 M H2SO4. A microplate spectrophotometer (BioTek) was used to detect signals with 450 nm. The detection range of IL-1β ELISA was […].

SMILES	pIC50	IC50
COC(=O)[C@@H](Cc1cccc(-c2cc[nH]n2)c1)NC(=O)Nc1c2c(cc3c1CCC3)CCC2 [Example 2L, Methyl (2R)-2-{[(1,2,3,5,6,7-hexahydro-s-indacen-4-yl)carbamoyl]amino}-3-[3-(1H-pyrazol-3-yl)phenyl]propanoate]	6.85	–
O=C(Nc1c2c(cc3c1CCC3)CCC2)N[C@H](Cc1cccnc1)C(=O)O [Example 2LL, (2R)-2-{[(1,2,3,5,6,7-hexahydro-s-indacen-4-yl)carbamoyl]amino}-3-(pyridin-3-yl)propanoic acid]	5.70	–
COC(=O)[C@@H](Cc1cccc(CO)c1)NC(=O)Nc1c2c(cc3c1CCC3)CCC2 [Example 2M, Methyl(2R)-2-{[(1,2,3,5,6,7-hexahydro-s-indacen-4-yl)carbamoyl]amino}-3-[3-(hydroxymethyl)phenyl]propanoate]	6.42	–
COCCOC(=O)[C@@H](Cc1cccnc1)NC(=O)Nc1c2c(cc3c1CCC3)CCC2 [Example 2MM, 2-methoxyethyl(2R)-2-{[(1,2,3,5,6,7-hexahydro-s-indacen-4-yl)carbamoyl]amino}-3-(pyridin-3-yl)propanoate]	5.54	–
COC(=O)[C@@H](CN)NC(=O)Nc1c2c(cc3c1CCC3)CCC2 [Example 2N, Methyl(2R)-3-amino-2-{[(1,2,3,5,6,7-hexahydro-s-indacen-4-yl)carbamoyl]amino}propanoate]	5.03	–
O=C(Nc1c2c(cc3c1CCC3)CCC2)N[C@H](Cc1cccnc1)C(=O)OC1CCC1 [Example 2NN, cyclobutyl (2R)-2-{[(1,2,3,5,6,7-hexahydro-s-indacen-4-yl)carbamoyl]amino}-3-(pyridin-3-yl)propanoate]	6.22	–
COC(=O)[C@@H](CCSC)NC(=O)Nc1c2c(cc3c1CCC3)CCC2 [Example 2O, Methyl(2R)-2-{[(1,2,3,5,6,7-hexahydro-s-indacen-4-yl)carbamoyl]amino}-4-(methylsulfanyl)butanoate]	5.49	–
O=C(Nc1c2c(cc3c1CCC3)CCC2)N[C@H](Cc1cccnc1)C(=O)OCC1CC1 [Example 2OO, cyclopropylmethyl(2R)-2-{[(1,2,3,5,6,7-hexahydro-s-indacen-4-yl)carbamoyl]amino}-3-(pyridin-3-yl)propanoate]	6.33	–
COC(=O)[C@@H](Cc1cccc(NC(C)=O)c1)NC(=O)Nc1c2c(cc3c1CCC3)CCC2 [Example 2P, Methyl(2R)-3-(3-acetamidophenyl)-2-{[(1,2,3,5,6,7-hexahydro-s-indacen-4-yl)carbamoyl]amino}propanoate]	6.85	–
O=C(Nc1c2c(cc3c1CCC3)CCC2)N[C@H](Cc1cccnc1)C(=O)OC1CCCC1 [Example 2PP, cyclopentyl(2R)-2-{[(1,2,3,5,6,7-hexahydro-s-indacen-4-yl)carbamoyl]amino}-3-(pyridin-3-yl)propanoate]	6.62	–
COC(=O)C(Cc1cnn(C)c1)NC(=O)Nc1c2c(cc3c1CCC3)CCC2 (stereo not shown) [Example 2Q, Methyl 2-{[(1,2,3,5,6,7-hexahydro-s-indacen-4-yl)carbamoyl]amino}-3-(1-methyl-1H-pyrazol-4-yl)propanoate]	–	2.4 µM
COC(=O)[C@@H](CC#N)NC(=O)Nc1c2c(cc3c1CCC3)CCC2 [Example 2QQ, methyl(2R)-3-cyano-2-{[(1,2,3,5,6,7-hexahydro-s-indacen-4yl)carbamoyl]amino}propanoate]	> 5.00	–
COC(=O)[C@@H](Cc1cccc(N2CCCC2=O)c1)NC(=O)Nc1c2c(cc3c1CCC3)CCC2 [Example 2R, Methyl(2R)-2-{[(1,2,3,5,6,7-hexahydro-s-indacen-4-yl)carbamoyl]amino}-3-[3-(2-oxopyrrolidin-1-yl)phenyl]propanoate]	6.48	–
CCOC(=O)[C@@H](Cc1cccnc1)NC(=O)Nc1c2c(cc3c1CCC3)CCC2 [Example 2RR, ethyl(2R)-2-{[(1,2,3,5,6,7-hexahydro-s-indacen-4-yl)carbamoyl]amino}-3-(pyridin-3-yl)propanoate]	5.77	–
COC(=O)CC[C@@H](NC(=O)Nc1c2c(cc3c1CCC3)CCC2)C(=O)OC [Example 2S, 1,5-dimethyl(2R)-2-{[(1,2,3,5,6,7-hexahydro-s-indacen-4-yl)carbamoyl]amino}pentanedioate]	–	3.5 µM
O=C(Nc1c2c(cc3c1CCC3)CCC2)N[C@H](Cc1ccccc1)C(=O)O [Example 2SS, (2R)-2-{[(1,2,3,5,6,7-hexahydro-s-indacen-4-yl)carbamoyl]amino}-3-phenylpropanoic acid]	4.85	–
CCOC(=O)CNC(=O)Nc1cc2c(c3c1CCCC3)CCC2 [Example 2T, Ethyl 2-[({1H,2H,3H,6H,7H,8H,9H-cyclopenta[a]naphthalen-5-yl}carbamoyl)amino] acetate]	–	3.1 µM
COC(=O)C(Cn1cc(C)cn1)NC(=O)Nc1c2c(cc3c1CCC3)CCC2 (stereo not shown) [Example 2TT, Methyl 2-{[(1,2,3,5,6,7-hexahydro-s-indacen-4-yl)carbamoyl]amino}-3-(4-methyl-1H-pyrazol-1-yl)propanoate]	4.85	–
COC(=O)[C@@H](Cc1cccc(Nc2cc[nH]n2)c1)NC(=O)Nc1c2c(cc3c1CCC3)CCC2 [Example 2U, Methyl(2R)-2-{[(1,2,3,5,6,7-hexahydro-s-indacen-4-yl)carbamoyl]amino}-3-{3-[(1H-pyrazol-3-yl)amino]phenyl}propanoate]	6.51	–
CCOC(=O)[C@@H](Cc1cccnc1)NC(=O)Nc1c(C(C)C)cccc1C(C)C [Example 2UU, Ethyl (2R)-2-({[2,6-bis(propan-2-yl)phenyl]carbamoyl}amino)-3-(pyridin-3-yl)propanoate]	4.68	–
O=C(Nc1c2c(cc3c1CCC3)CCC2)N[C@H](Cc1cccc(-c2cc[nH]n2)c1)C(=O)O [Example 2V, (2R)-2-{[(1,2,3,5,6,7-hexahydro-s-indacen-4-yl)carbamoyl]amino}-3-[3-(1H-pyrazol-3-yl)phenyl]propanoic acid]	6.28	–
COC(=O)C[C@@H](NC(=O)Nc1c2c(cc3c1CCC3)CCC2)C(=O)OC [Example 2W, 1,4-dimethyl(2R)-2-{[(1,2,3,5,6,7-hexahydro-s-indacen-4-yl)carbamoyl]amino}butanedioate]	5.54	–
COC(=O)[C@@H](Cc1cncc(OC)c1)NC(=O)Nc1c2c(cc3c1CCC3)CCC2 [Example 2WW, Methyl (2R)-2-{[(1,2,3,5,6,7-hexahydro-s-indacen-4-yl)carbamoyl]amino}-3-(5-methoxypyridin-3-yl)propanoate]	6.35	–
CCOC(=O)CNC(=O)Nc1c2c(cc3c1CCC3)CCC2 [Example 2X, ethyl 2-{[(1,2,3,5,6,7-hexahydro-s-indacen-4-yl)carbamoyl]amino}acetate]	5.82	–
CCOC(=O)C(Cc1nc(C)no1)NC(=O)Nc1c2c(cc3c1CCC3)CCC2 (stereo not shown) [Example 2XX, Ethyl 2-{[(1,2,3,5,6,7-hexahydro-s-indacen-4-yl)carbamoyl]amino}-3-(3-methyl-1,2,4-oxadiazol-5-yl)propanoate]	5.29	–
COC(=O)[C@@H](Cc1cccnn1)NC(=O)Nc1c2c(cc3c1CCC3)CCC2 [Example 2YY, Methyl (2R)-2-{[(1,2,3,5,6,7-hexahydro-s-indacen-4-yl)carbamoyl]amino}-3-(pyridazin-3-yl)propanoate]	5.48	–
COC(=O)[C@@H](Cc1ccc(O)cc1)NC(=O)Nc1c2c(cc3c1CCC3)CCC2 [Example 2Z, methyl(2R)-2-{[(1,2,3,5,6,7-hexahydro-s-indacen-4-yl)carbamoyl]amino}-3-(4-hydroxyphenyl)propanoate]	7.00	–
CCOC(=O)C(Cc1cnoc1)NC(=O)Nc1c2c(cc3c1CCC3)CCC2 (stereo not shown) [Example 2ZZ, Ethyl 2-{[(1,2,3,5,6,7-hexahydro-s-indacen-4-yl)carbamoyl]amino}-3-(1,2-oxazol-4-yl)propanoate]	5.48	–
